pIC50, pKi: −log10 of the molar value. Where “and” joins values, the source holds several entries; their conditions need not be identical. Identical values can stand only once.
How the values were obtained:
GC3/MTK- = assay: Inhibitory activity against GC3/M TK- human adreno carcinoma cell lines.
CCRF-CEM = assay: Inhibitory activity against human CCRF-CEM leukemic cell lines.
L1210 = assay: Inhibitory activity against murine L1210 leukemic cell lines.; conditions: Mus musculus
Thymidylate synthase [1] = molecular target: T1, Thymidylate synthase (Homo sapiens, UniProt P04818)
Description: Binding affinity against recombinant thymidylate synthase in Escherichia coli

Thymidylate synthase [2] = molecular target: T1, Thymidylate synthase; remark: listed apart in the source
Description: Binding affinity against recombinant human thymidylate synthase

T1 sequence (P04818 whole entry): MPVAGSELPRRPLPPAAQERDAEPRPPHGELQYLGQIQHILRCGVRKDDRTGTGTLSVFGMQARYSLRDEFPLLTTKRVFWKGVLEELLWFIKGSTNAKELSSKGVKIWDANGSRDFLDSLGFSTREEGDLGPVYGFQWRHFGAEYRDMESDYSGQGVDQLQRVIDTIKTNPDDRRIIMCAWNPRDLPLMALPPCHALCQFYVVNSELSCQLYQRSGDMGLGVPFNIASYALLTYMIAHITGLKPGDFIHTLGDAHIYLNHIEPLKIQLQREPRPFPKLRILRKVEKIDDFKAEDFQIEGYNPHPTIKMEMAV

Row | Structure (SMILES) | pIC50 (GC3/MTK-) | pIC50 (CCRF-CEM) | pIC50 (L1210) | pKi (Thymidylate synthase [1]) | pKi (Thymidylate synthase [2])
1 | C#CCN(Cc1ccc2nc(C)nc(O)c2c1)c1ccc([S+]([O-])c2ccccc2C)c(C(F)(F)F)c1 (stereo not drawn) | 5.04 | 5.52 | 6.00 | 6.54 and 6.04 | 6.59 and 6.41
2 | C#CCN(Cc1ccc2nc(C)nc(O)c2c1)c1ccc(S(=O)(=O)c2ccccc2C)c(C(F)(F)F)c1 | < 5.30 | 5.70 | 6.00 | 6.80 and 6.41 | 6.82 and 6.42
3 | C#CCN(Cc1ccc2nc(C)nc(O)c2c1)c1ccc([S+]([O-])c2ccccc2C)cc1 (stereo not drawn) | 5.40 | 5.46 | 5.77 | 6.60 and 6.11 | 7.35 and 7.11
4 | C#CCN(Cc1ccc2nc(C)nc(O)c2c1)c1ccc(S(=O)(=O)c2ccccc2Cl)cc1 | 5.92 | 6.22 | 6.52 | 7.48 and 7.16 | 7.68 and 7.60
5 | C#CCN(Cc1ccc2nc(C)nc(O)c2c1)c1ccc([S+]([O-])c2ccccc2)c(Cl)c1 (stereo not drawn) | 5.42 | 5.64 | 6.00 | 7.27 and 6.89 | 7.57 and 7.43
6 | C#CCN(Cc1ccc2nc(C)nc(O)c2c1)c1ccc(S(=O)(=O)c2ccccc2)c(Cl)c1 | 5.52 | 5.82 | 5.80 | 7.48 and 7.37 | 7.62 and 7.26
7 | C#CCN(Cc1ccc2nc(C)[nH]c(=O)c2c1)c1ccc([S+]([O-])c2ccccc2)cc1 (stereo not drawn) |  |  |  | 6.80 and 6.26 | 7.21 and 6.96

Now from value to compound:

Row | pIC50 (GC3/MTK-) | pIC50 (CCRF-CEM) | pIC50 (L1210) | pKi (Thymidylate synthase [1]) | pKi (Thymidylate synthase [2]) | Structure (SMILES)
8 | 5.55 | 5.70 | 5.92 | 7.37 and 7.13 | 7.70 and 7.34 | C#CCN(Cc1ccc2nc(C)nc(O)c2c1)c1ccc(S(=O)(=O)c2ccccc2)c(F)c1
9 | 5.47 | 5.57 | 6.22 | 7.25 and 6.80 | 7.59 and 7.24 | C#CCN(Cc1ccc2nc(C)nc(O)c2c1)c1ccc(S(=O)(=O)c2ccccc2C)cc1
10 | 5.38 | 5.85 | 5.68 | 7.06 and 6.54 | 7.30 and 6.92 | C#CCN(Cc1ccc2nc(C)nc(O)c2c1)c1ccc([S+]([O-])c2ccccc2)c(F)c1 (stereo not drawn)
11 | 5.48 | 5.52 | 5.96 | 6.96 and 6.80 | 7.15 and 6.82 | C#CCN(Cc1ccc2nc(C)nc(O)c2c1)c1ccc([S+]([O-])c2ccccc2)c(C(F)(F)F)c1 (stereo not drawn)
12 | 5.37 | 5.24 | 5.68 | 6.72 and 6.12 | 7.34 and 7.14 | C#CCN(Cc1ccc2nc(C)nc(O)c2c1)c1ccc([S+]([O-])c2ccccc2Cl)cc1 (stereo not drawn)
13 | 5.99 |  |  |  |  | C#CCN(Cc1ccc2nc(C)nc(O)c2c1)c1ccc(S(=O)(=O)c2ccccc2)cc1
